{
  "source": "patent US6355799B1",
  "about": "“Substituted benzene compounds, process for their preparation, and herbicidal and defoliant compositions containing them” (ISK Americas Incorporated, priority 1997, dated 2002)",
  "type_in_all_cases": "in vivo",
  "key": {"[1]": {"tested_on": "redroot pigweed (Amaranthus retroflexus, AMARE)", "assay": "Pre-emerge test, greenhouse herbicide activity screening", "conditions": "pre-emerge, 14 days after application, scale 0-100", "method_in_brief": "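Compounds in acetone were track-sprayed at 187 l/ha, 15–1000 g ai/ha, onto sandy loam pots. Pre-emerge seeds were sown one day before spraying, with surface watering afterwards. Post-emerge plants were at the 2–3 leaf stage and sprayed with 0.25% v/v non-ionic surfactant. Injury was rated 0–100 at 14 days.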"}, "[2]": {"tested_on": "barnyardgrass (Echinochloa crus-galli, ECHCG)", "assay": "Pre-emerge test, greenhouse herbicide activity screening", "conditions": "pre-emerge, 14 days after application, scale 0-100", "method_in_brief": "(§1)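 Compounds in acetone were track-sprayed at 15–1000 g ai/ha: pre-emergence onto soil sown the previous day, then top-watered to incorporate and later bottom-watered; post-emergence onto 2–3 leaf plants with 0.25% v/v surfactant, bottom-watered only. Ratings on a 0–100 phytotoxicity scale were taken at day 14.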"}, "[3]": {"tested_on": "green foxtail (Setaria viridis, SETVI)", "assay": "Pre-emerge test, greenhouse herbicide activity screening", "conditions": "pre-emerge, 14 days after application, scale 0-100", "method_in_brief": "as §1"}, "[4]": {"tested_on": "velvetleaf (Abutilon theophrasti, ABUTH)", "assay": "Pre-emerge test, greenhouse herbicide activity screening", "conditions": "pre-emerge, 14 days after application, scale 0-100", "method_in_brief": "as §1"}, "[5]": {"tested_on": "large crabgrass (Digitaria sanguinalis, DIGSA)", "assay": "Pre-emerge test, greenhouse herbicide activity screening", "conditions": "pre-emerge, 14 days after application, scale 0-100", "method_in_brief": "as §1"}, "[6]": {"tested_on": "ivyleaf morningglory (Ipomoea hederacea, IPOHE)", "assay": "Pre-emerge test, greenhouse herbicide activity screening", "conditions": "pre-emerge, 14 days after application, scale 0-100", "method_in_brief": "as §1"}, "[7]": {"tested_on": "johnsongrass (Sorghum halepense, SORHA)", "assay": "Pre-emerge test, greenhouse herbicide activity screening", "conditions": "pre-emerge, 14 days after application, scale 0-100", "method_in_brief": "as §1"}, "[8]": {"tested_on": "common ragweed (Ambrosia artemisizfolia L., AMBEL)", "assay": "Pre-emerge test, greenhouse herbicide activity screening", "conditions": "pre-emerge, 14 days after application, scale 0-100", "method_in_brief": "as §1"}, "[9]": {"tested_on": "sicklepod (Cassia obtusifolia, CASOB)", "assay": "Pre-emerge test, greenhouse herbicide activity screening", "conditions": "pre-emerge, 14 days after application, scale 0-100", "method_in_brief": "as §1"}, "[10]": {"tested_on": "lambsquarters (Chenopodium album, CHEAL)", "assay": "Pre-emerge test, greenhouse herbicide activity screening", "conditions": "pre-emerge, 14 days after application, scale 0-100", "method_in_brief": "as §1"}, "[11]": {"tested_on": "upland rice (Oryza sp., var. Tebonnet, RICE)", "assay": "Pre-emerge test, crop safety", "conditions": "pre-emerge, 14 days after application, scale 0-100", "method_in_brief": "(§2)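 Sandy loam pots; pre-emerge: sown 1 d pre-spray, surface-watered after, then bottom-watered. Post-emerge: sown 8–21 d before, 2–3 leaf stage, + 0.25% v/v NIS, bottom-watered. Acetone, 187 l/ha track spray, 15–1000 g ai/ha. 0–100 injury score, day 14.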"}, "[12]": {"tested_on": "field corn (Zea mays L., var. Dekalb 535, CORN)", "assay": "Pre-emerge test, crop safety", "conditions": "pre-emerge, 14 days after application, scale 0-100", "method_in_brief": "as §2"}, "[13]": {"tested_on": "upland rice (Oryza sp., var. Tebonnet, RICE)", "assay": "Post-emerge test, crop safety", "conditions": "post-emerge, 14 days after application, rating scale 0-100", "method_in_brief": "(§3)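 Rating: 0–100 visual injury, 14 DAA. Application: acetone, 187 l/ha, 15–1000 g ai/ha, flat-fan track sprayer with nozzle 40–45 cm above soil or canopy. Post-emerge runs used 0.25% v/v surfactant on 2–3 leaf plants.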"}, "[14]": {"tested_on": "field corn (Zea mays L., var. Dekalb 535, CORN)", "assay": "Post-emerge test, crop safety", "conditions": "post-emerge, 14 days after application, rating scale 0-100", "method_in_brief": "as §3"}, "[15]": {"tested_on": "barnyardgrass (Echinochloa crus-galli, ECHCG)", "assay": "Post-emerge test, greenhouse herbicide activity screening", "conditions": "post-emerge, 14 days after application, rating scale 0-100", "method_in_brief": "(§4)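 Herbicidal damage is scored 0 (none) to 100 (complete plant death) two weeks after a simulated field spray. Rates span 15–1000 g ai/ha, delivered in acetone at 187 l/ha. For post-emergence treatments, plants have 2–3 leaves and the spray carries 0.25% v/v non-ionic surfactant.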"}, "[16]": {"tested_on": "redroot pigweed (Amaranthus retroflexus, AMARE)", "assay": "Post-emerge test, greenhouse herbicide activity screening", "conditions": "post-emerge, 14 days after application, rating scale 0-100", "method_in_brief": "as §4"}, "[17]": {"tested_on": "green foxtail (Setaria viridis, SETVI)", "assay": "Post-emerge test, greenhouse herbicide activity screening", "conditions": "post-emerge, 14 days after application, rating scale 0-100", "method_in_brief": "as §4"}, "[18]": {"tested_on": "velvetleaf (Abutilon theophrasti, ABUTH)", "assay": "Post-emerge test, greenhouse herbicide activity screening", "conditions": "post-emerge, 14 days after application, rating scale 0-100", "method_in_brief": "as §4"}, "[19]": {"tested_on": "large crabgrass (Digitaria sanguinalis, DIGSA)", "assay": "Post-emerge test, greenhouse herbicide activity screening", "conditions": "post-emerge, 14 days after application, rating scale 0-100", "method_in_brief": "as §4"}, "[20]": {"tested_on": "ivyleaf morningglory (Ipomoea hederacea, IPOHE)", "assay": "Post-emerge test, greenhouse herbicide activity screening", "conditions": "post-emerge, 14 days after application, rating scale 0-100", "method_in_brief": "as §4"}, "[21]": {"tested_on": "johnsongrass (Sorghum halepense, SORHA)", "assay": "Post-emerge test, greenhouse herbicide activity screening", "conditions": "post-emerge, 14 days after application, rating scale 0-100", "method_in_brief": "as §4"}, "[22]": {"tested_on": "sicklepod (Cassia obtusifolia, CASOB)", "assay": "Post-emerge test, greenhouse herbicide activity screening", "conditions": "post-emerge, 14 days after application, rating scale 0-100", "method_in_brief": "as §4"}, "[23]": {"tested_on": "lambsquarters (Chenopodium album, CHEAL)", "assay": "Post-emerge test, greenhouse herbicide activity screening", "conditions": "post-emerge, 14 days after application, rating scale 0-100", "method_in_brief": "as §4"}},
  "data": [
    {"smiles": "Cn1c(C(F)(F)F)cc(=O)n(-c2c(F)cc(OC(F)F)cc2NC(=O)c2ccc3ccccc3c2)c1=O", "note": "[2-148]", "values": [
      {"measurement": "phytotoxicity rating AMARE", "setting": "[1]; 63 g ai/ha", "result": 100},
      {"measurement": "phytotoxicity rating AMARE", "setting": "[1]; 250 g ai/ha", "result": 100},
      {"measurement": "phytotoxicity rating ECHCG", "setting": "[2]; 63 g ai/ha", "result": 90},
      {"measurement": "phytotoxicity rating ECHCG", "setting": "[2]; 250 g ai/ha", "result": 100},
      {"measurement": "phytotoxicity rating SETVI", "setting": "[3]; 63 g ai/ha", "result": 80},
      {"measurement": "phytotoxicity rating SETVI", "setting": "[3]; 250 g ai/ha", "result": 95},
      {"measurement": "phytotoxicity rating ABUTH", "setting": "[4]; 63 g ai/ha", "result": 100},
      {"measurement": "phytotoxicity rating ABUTH", "setting": "[4]; 250 g ai/ha", "result": 100},
      {"measurement": "phytotoxicity rating DIGSA", "setting": "[5]; 63 g ai/ha", "result": 95},
      {"measurement": "phytotoxicity rating DIGSA", "setting": "[5]; 250 g ai/ha", "result": 100},
      {"measurement": "phytotoxicity rating IPOHE", "setting": "[6]; 63 g ai/ha", "result": 50},
      {"measurement": "phytotoxicity rating IPOHE", "setting": "[6]; 250 g ai/ha", "result": 99},
      {"measurement": "phytotoxicity rating SORHA", "setting": "[7]; 63 g ai/ha", "result": 0},
      {"measurement": "phytotoxicity rating SORHA", "setting": "[7]; 250 g ai/ha", "result": 30},
      {"measurement": "phytotoxicity rating AMBEL", "setting": "[8]; 63 g ai/ha", "result": 0},
      {"measurement": "phytotoxicity rating AMBEL", "setting": "[8]; 250 g ai/ha", "result": 100},
      {"measurement": "phytotoxicity rating CASOB", "setting": "[9]; 63 g ai/ha", "result": 50},
      {"measurement": "phytotoxicity rating CASOB", "setting": "[9]; 250 g ai/ha", "result": 95},
      {"measurement": "phytotoxicity rating CHEAL", "setting": "[10]; 63 g ai/ha", "result": 100},
      {"measurement": "phytotoxicity rating CHEAL", "setting": "[10]; 250 g ai/ha", "result": 100},
      {"measurement": "phytotoxicity rating RICE (crop damage)", "setting": "[11]; 63 g ai/ha", "result": 0},
      {"measurement": "phytotoxicity rating RICE (crop damage)", "setting": "[11]; 250 g ai/ha", "result": 60},
      {"measurement": "phytotoxicity rating CORN (crop damage)", "setting": "[12]; 63 g ai/ha", "result": 0},
      {"measurement": "phytotoxicity rating CORN (crop damage)", "setting": "[12]; 250 g ai/ha", "result": 0},
      {"measurement": "RICE phytotoxicity rating (crop damage)", "setting": "[13]; 63 g ai/ha", "result": 0},
      {"measurement": "RICE phytotoxicity rating (crop damage)", "setting": "[13]; 250 g ai/ha", "result": 10},
      {"measurement": "CORN phytotoxicity rating (crop damage)", "setting": "[14]; 63 g ai/ha", "result": 25},
      {"measurement": "CORN phytotoxicity rating (crop damage)", "setting": "[14]; 250 g ai/ha", "result": 30},
      {"measurement": "ECHCG phytotoxicity rating", "setting": "[15]; 63 g ai/ha", "result": 50},
      {"measurement": "ECHCG phytotoxicity rating", "setting": "[15]; 250 g ai/ha", "result": 20},
      {"measurement": "AMARE phytotoxicity rating", "setting": "[16]; 63 g ai/ha", "result": 100},
      {"measurement": "AMARE phytotoxicity rating", "setting": "[16]; 250 g ai/ha", "result": 90},
      {"measurement": "SETVI phytotoxicity rating", "setting": "[17]; 63 g ai/ha", "result": 50},
      {"measurement": "SETVI phytotoxicity rating", "setting": "[17]; 250 g ai/ha", "result": 40},
      {"measurement": "ABUTH phytotoxicity rating", "setting": "[18]; 63 g ai/ha", "result": 100},
      {"measurement": "ABUTH phytotoxicity rating", "setting": "[18]; 250 g ai/ha", "result": 100},
      {"measurement": "DIGSA phytotoxicity rating", "setting": "[19]; 63 g ai/ha", "result": 40},
      {"measurement": "DIGSA phytotoxicity rating", "setting": "[19]; 250 g ai/ha", "result": 40},
      {"measurement": "IPOHE phytotoxicity rating", "setting": "[20]; 63 g ai/ha", "result": 80},
      {"measurement": "IPOHE phytotoxicity rating", "setting": "[20]; 250 g ai/ha", "result": 90},
      {"measurement": "SORHA phytotoxicity rating", "setting": "[21]; 63 g ai/ha", "result": 0},
      {"measurement": "SORHA phytotoxicity rating", "setting": "[21]; 250 g ai/ha", "result": 10},
      {"measurement": "CASOB phytotoxicity rating", "setting": "[22]; 63 g ai/ha", "result": 95},
      {"measurement": "CASOB phytotoxicity rating", "setting": "[22]; 250 g ai/ha", "result": 100},
      {"measurement": "CHEAL phytotoxicity rating", "setting": "[23]; 63 g ai/ha", "result": 100},
      {"measurement": "CHEAL phytotoxicity rating", "setting": "[23]; 250 g ai/ha", "result": 100}
    ]}
  ]
}
